Entries after “also recorded” stand apart in the source; their conditions may differ.
How the values were obtained:
E. coli MetAP = E. coli MetAP (Escherichia coli, UniProt P0AE18); assay: cell-based MetAP assay; conditions: Ca(II) treated cells; result in words
[1] = tested on: E. coli MetAP in the Fe(II)-form; conditions: result in words; ref [11] and [16]; cited from earlier work
E. coli AS19 strain = conditions: result in words; ref [11] and [16]; cited from earlier work
MetAP in the Co(II)-form = conditions: result in words; ref [10]; cited from earlier work

Chain of E. coli MetAP (P0AE18 whole entry): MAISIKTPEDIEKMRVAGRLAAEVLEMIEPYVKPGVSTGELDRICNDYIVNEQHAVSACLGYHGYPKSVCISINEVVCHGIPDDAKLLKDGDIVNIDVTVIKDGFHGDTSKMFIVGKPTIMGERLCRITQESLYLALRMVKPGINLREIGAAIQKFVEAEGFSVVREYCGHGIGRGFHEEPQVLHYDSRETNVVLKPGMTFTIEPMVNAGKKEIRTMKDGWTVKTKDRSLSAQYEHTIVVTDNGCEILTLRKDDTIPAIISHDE

Row | Structure (SMILES) | inhibition of intracellular Met-AMC hydrolysis (cellular MetAP activity) (E. coli MetAP) | inhibition of purified MetAP in the Fe(II)-form [1] | inhibition of bacterial growth (E. coli AS19 strain) | potency and selectivity towards purified MetAP in the Co(II)-form (MetAP in the Co(II)-form)
1 | O=C(NCc1ccccn1)C(=O)Nc1nccs1 [compound 31] | no inhibition | weak inhibition | did not halt bacterial growth | highly potent and selective
2 | O=C(Nc1nccs1)C(=O)NC1CCCC1 [compound 30] | no inhibition | weak inhibition | did not halt bacterial growth | highly potent and selective
3 | O=C(O)c1ccc(-c2ccccc2Cl)o1 [compound 28] | – | weak inhibition | did not halt bacterial growth | –
4 | O=C(NC1CC1)c1ccc(-c2ccc(O)c(O)c2)s1 [compound 22] | exceptions | – | – | –
5 | Cc1nc(-c2ccc(O)cc2O)cs1 [compound 4] | no inhibition | – | – | –
6 | COc1ccc(-c2csc(C)n2)cc1OC [compound 2] | decreased potency | – | – | –
7 | O=C(NC1CC1)c1ccsc1-c1ccc(O)c(O)c1 [compound 23] | exceptions | – | – | –
8 | Cc1nc(-c2cccc(O)c2)cs1 [compound 3] | no inhibition | – | – | –
9 | O=C(O)c1ccc(-c2cc(Cl)ccc2Cl)o1 [compound 29] | – | weak inhibition | did not halt bacterial growth | –
10 | Cc1nc(-c2ccc(O)c(O)c2)cs1 [compound 1] | displayed inhibition; also recorded: inhibited in a time-dependent fashion | – | – | –
